Bridge positions count the residues as written; N and C are the ends. Square brackets hold non-standard residues; d marks the D form. Peptide text beside a SMILES is read from it. ξ: configuration not given here. Gly(N-CH2CH2C6H4-4Cl) = O=C(O)CNCCc1ccc(Cl)cc1; Gly(N-piperonyl) = O=C(O)CNCc1ccc2c(c1)OCO2; Nrpe = C[C@@H](NCC(=O)O)c1ccccc1; NFurfurylGly = O=C(O)CNCc1ccco1; ξE = NC(CCC(=O)O)C(=O)O; Nleu = CC(C)CNCC(=O)O; Nlys = NCCCCNCC(=O)O; Nme = COCCNCC(=O)O
Tests used:
[1] = target: pemphigus vulgaris autoantibody (Dsg3); experiment: Solution binding to pemphigus vulgaris autoantibody; settings: pemphigus vulgaris autoantibody to the Dsg autoantigen; read-out: binding affinity in solution
[2] = tested on: MBP Ac1-11 specific T cells (Vα2.3/Vβ8.2 TCR transgenic); experiment: DOPA chemical cross-linking, streptavidin staining, mean fluorescence intensity; design: species or system mice; settings: biotin-labeled DOPA-peptoid, periodate cross-linking, CD4+/streptavidin+ cells; read-out: Kr, of binding to MBP Ac1-11 specific T cells
[3] = tested on: CD4+ T cells from MBP Ac1-11 TCR transgenic mice; experiment: Binding of quantum dot-labeled T cells to peptoid resynthesized on beads; settings: red quantum dot-labeled
Experimental: To determine whether AG12A was binding to the autoreactive TCR, the inventors took advantage of the existence of transgenic mice, in which the vast majority of CD4+ T cells express the MBP Ac1-11 specific TCR (Vα2.3/Vβ8.2 TCR) (Goveman et al., 1993). CD4+ T cells were isolated from these mice and tested for binding to AG12A. This was done in several ways. First, AG12A was resynthesized on beads, as was a control peptoid not selected as a T cell ligand. The beads were then incubated with red quantum dot-labeled T cells.

B cells = experiment: B cell proliferation; type: cell-based
[4] = tested on: Myelin Oligodendrocyte Glycoprotein (MOG) 35-55 specific TCR transgenic T cells; experiment: Antigen-stimulated T cell proliferation, CFSE dilution by flow cytometry; type: cell-based
wild-type CD4+ T cells = experiment: Binding of quantum dot-labeled T cells to peptoid resynthesized on beads; design: species or system mice

Row | SMILES | Kd [1] [µM] | Kd [2] [µM] | binding of T cells to peptoid displayed on beads [3] | inhibition of proliferation of B cells (B cells) | inhibition of antigen-stimulated proliferation of MOG 35-55 specific TCR transgenic T cells [4] | binding of T cells to peptoid displayed on beads (wild-type CD4+ T cells)
1 | COCCN1CC(=O)N(CCCCN)CC(=O)N(Cc2ccc3c(c2)OCO3)CC(=O)N(CCc2ccc(Cl)cc2)CC(=O)NC(C(N)=O)CCC1=O (stereo not drawn) [compound 1a] ([Nme][Nlys][Gly(N-piperonyl)][Gly(N-CH2CH2C6H4-4Cl)][ξE]-NH2; lactam N-5) | ~10 |  |  |  |  | 
2 | CC(C)CNCC(=O)N(CCCCN)CC(=O)N(CC(=O)N(CC(=O)N(CCCCN)CC(=O)N(CC(=O)N(CCCCN)CC(=O)N(CCCCN)CC(N)=O)CC(C)C)[C@H](C)c1ccccc1)Cc1ccco1 [AG12A] (H-[Nleu][Nlys][NFurfurylGly][Nrpe][Nlys][Nleu][Nlys][Nlys]-NH2; C-terminus assumed) |  | ~40 | bound to AG12A displayed on beads | nor did AG12A inhibit proliferation of B cells | did not inhibit | did not

Reference: patent US9458199B2, “Antigen surrogates in autoimmune disease” (OPKO Pharmaceuticals, LLC, priority 2011, dated 2016)
